Assay: In vivo biodistribution of radiolabelled compounds in rats
Description: In vivo biodistribution of radiolabelled compounds of the invention indicated high uptake in the tissues which have known PBR sites. Tables 2 to 4 show the biodistribution of the compounds of Examples 1-3, in which the iodine atom is radiolabelled, when administered to rats.

CCN(CC)C(=O)Cc1c(-c2ccc([123I])cc2)nc2ccc(Cl)cn12 [^123-I Example 3]
Biodistribution (% ID/g organ) Adrenals (5 Min): 2.11 ± 0.12 % ID/g organ | Biodistribution (% ID/g organ) Adrenals (15 Min): 2.03 ± 0.8 % ID/g organ | Biodistribution (% ID/g organ) Adrenals (24 Hrs): 4.56 ± 0.74 % ID/g organ | Biodistribution (% ID/g organ) Adrenals (30 Min): 2.42 ± 0.36 % ID/g organ | Biodistribution (% ID/g organ) Adrenals (48 Hrs): 4.87 ± 0.55 % ID/g organ | Biodistribution (% ID/g organ) Adrenals (60 Min): 2.83 ± 0.41 % ID/g organ | Biodistribution (% ID/g organ) Adrenals (180 Min): 4.1 ± 0.80 % ID/g organ | Biodistribution (% ID/g organ) Adrenals (240 Min): 4.32 ± 0.60 % ID/g organ | Biodistribution (% ID/g organ) Adrenals (360 Min): 5.28 ± 0.95 % ID/g organ | Biodistribution (% ID/g organ) Adrenals (480 Min): 4.22 ± 0.12 % ID/g organ | Biodistribution (% ID/g organ) Blood (5 Min): 0.46 ± 0.08 % ID/g organ | Biodistribution (% ID/g organ) Blood (15 Min): 0.16 ± 0.02 % ID/g organ | Biodistribution (% ID/g organ) Blood (24 Hrs): 0.02 ± 0.001 % ID/g organ | Biodistribution (% ID/g organ) Blood (30 Min): 0.12 ± 0.03 % ID/g organ | Biodistribution (% ID/g organ) Blood (48 Hrs): 0.01 ± 0.001 % ID/g organ | Biodistribution (% ID/g organ) Blood (60 Min): 0.06 ± 0.02 % ID/g organ | Biodistribution (% ID/g organ) Blood (180 Min): 0.04 ± 0.001 % ID/g organ | Biodistribution (% ID/g organ) Blood (240 Min): 0.05 ± 0.001 % ID/g organ | Biodistribution (% ID/g organ) Blood (360 Min): 0.04 ± 0.001 % ID/g organ | Biodistribution (% ID/g organ) Blood (480 Min): 0.03 ± 0.001 % ID/g organ | Biodistribution (% ID/g organ) Brain (5 Min): 0.33 ± 0.04 % ID/g organ | Biodistribution (% ID/g organ) Brain (15 Min): 0.2 ± 0.02 % ID/g organ | Biodistribution (% ID/g organ) Brain (24 Hrs): 0.01 ± 0.001 % ID/g organ | Biodistribution (% ID/g organ) Brain (30 Min): 0.15 ± 0.01 % ID/g organ | Biodistribution (% ID/g organ) Brain (48 Hrs): 0.01 ± 0.001 % ID/g organ | Biodistribution (% ID/g organ) Brain (60 Min): 0.08 ± 0.02 % ID/g organ | Biodistribution (% ID/g organ) Brain (180 Min): 0.05 ± 0.001 % ID/g organ | Biodistribution (% ID/g organ) Brain (240 Min): 0.05 ± 0.01 % ID/g organ | Biodistribution (% ID/g organ) Brain (360 Min): 0.05 ± 0.02 % ID/g organ | Biodistribution (% ID/g organ) Brain (480 Min): 0.03 ± 0.001 % ID/g organ | Biodistribution (% ID/g organ) Heart (5 Min): 2.63 ± 0.30 % ID/g organ | Biodistribution (% ID/g organ) Heart (15 Min): 2.39 ± 035 % ID/g organ | Biodistribution (% ID/g organ) Heart (24 Hrs): 0.39 ± 0.03 % ID/g organ | Biodistribution (% ID/g organ) Heart (30 Min): 2.44 ± 0.28 % ID/g organ | Biodistribution (% ID/g organ) Heart (48 Hrs): 0.17 ± 0.002 % ID/g organ | Biodistribution (% ID/g organ) Heart (60 Min): 2.65 ± 0.63 % ID/g organ | Biodistribution (% ID/g organ) Heart (180 Min): 2.59 ± 0.16 % ID/g organ | Biodistribution (% ID/g organ) Heart (240 Min): 2.49 ± 0.22 % ID/g organ | Biodistribution (% ID/g organ) Heart (360 Min): 2.13 ± 0.45 % ID/g organ | Biodistribution (% ID/g organ) Heart (480 Min): 1.48 ± 0.12 % ID/g organ | Biodistribution (% ID/g organ) Kidney (5 Min): 1.73 ± 0.38 % ID/g organ | Biodistribution (% ID/g organ) Kidney (15 Min): 2.11 ± 0.31 % ID/g organ | Biodistribution (% ID/g organ) Kidney (24 Hrs): 0.25 ± 0.03 % ID/g organ | Biodistribution (% ID/g organ) Kidney (30 Min): 2.31 ± 0.02 % ID/g organ | Biodistribution (% ID/g organ) Kidney (48 Hrs): 0.12 ± 0.01 % ID/g organ | Biodistribution (% ID/g organ) Kidney (60 Min): 1.87 ± 0.66 % ID/g organ | Biodistribution (% ID/g organ) Kidney (180 Min): 1.71 ± 0.17 % ID/g organ | Biodistribution (% ID/g organ) Kidney (240 Min): 1.37 ± 0.18 % ID/g organ | Biodistribution (% ID/g organ) Kidney (360 Min): 1.43 ± 0.25 % ID/g organ | Biodistribution (% ID/g organ) Kidney (480 Min): 0.87 ± 0.15 % ID/g organ | Biodistribution (% ID/g organ) Liver (5 Min): 0.87 ± 0.13 % ID/g organ | Biodistribution (% ID/g organ) Liver (15 Min): 0.93 ± 0.06 % ID/g organ | Biodistribution (% ID/g organ) Liver (24 Hrs): 0.06 ± 0.001 % ID/g organ | Biodistribution (% ID/g organ) Liver (30 Min): 0.76 ± 0.01 % ID/g organ | Biodistribution (% ID/g organ) Liver (48 Hrs): 0.04 ± 0.001 % ID/g organ | Biodistribution (% ID/g organ) Liver (60 Min): 0.41 ± 0.14 % ID/g organ | Biodistribution (% ID/g organ) Liver (180 Min): 0.28 ± 0.02 % ID/g organ | Biodistribution (% ID/g organ) Liver (240 Min): 0.23 ± 0.03 % ID/g organ | Biodistribution (% ID/g organ) Liver (360 Min): 0.23 ± 0.02 % ID/g organ | Biodistribution (% ID/g organ) Liver (480 Min): 0.16 ± 0.01 % ID/g organ | Biodistribution (% ID/g organ) Lungs (5 Min): 13.16 ± 1.24 % ID/g organ | Biodistribution (% ID/g organ) Lungs (15 Min): 6.98 ± 1.87 % ID/g organ | Biodistribution (% ID/g organ) Lungs (24 Hrs): 0.31 ± 0.06 % ID/g organ | Biodistribution (% ID/g organ) Lungs (30 Min): 4.91 ± 0.22 % ID/g organ | Biodistribution (% ID/g organ) Lungs (48 Hrs): 0.17 ± 0.02 % ID/g organ | Biodistribution (% ID/g organ) Lungs (60 Min): 2.76 ± 0.80 % ID/g organ | Biodistribution (% ID/g organ) Lungs (180 Min): 1.63 ± 0.07 % ID/g organ | Biodistribution (% ID/g organ) Lungs (240 Min): 1.38 ± 0.09 % ID/g organ | Biodistribution (% ID/g organ) Lungs (360 Min): 1.21 ± 0.27 % ID/g organ | Biodistribution (% ID/g organ) Lungs (480 Min): 0.75 ± 0.07 % ID/g organ | Biodistribution (% ID/g organ) Olfactive bulbs (5 Min): 0.44 ± 0.08 % ID/g organ | Biodistribution (% ID/g organ) Olfactive bulbs (15 Min): 0.31 ± 0.03 % ID/g organ | Biodistribution (% ID/g organ) Olfactive bulbs (24 Hrs): 0.09 ± 0.001 % ID/g organ | Biodistribution (% ID/g organ) Olfactive bulbs (30 Min): 0.26 ± 0.03 % ID/g organ | Biodistribution (% ID/g organ) Olfactive bulbs (48 Hrs): 0.07 ± 0.001 % ID/g organ | Biodistribution (% ID/g organ) Olfactive bulbs (60 Min): 0.2 ± 0.07 % ID/g organ | Biodistribution (% ID/g organ) Olfactive bulbs (180 Min): 0.16 ± 0.02 % ID/g organ | Biodistribution (% ID/g organ) Olfactive bulbs (240 Min): 0.18 ± 0.03 % ID/g organ | Biodistribution (% ID/g organ) Olfactive bulbs (360 Min): 0.16 ± 0.04 % ID/g organ | Biodistribution (% ID/g organ) Olfactive bulbs (480 Min): 0.16 ± 0.03 % ID/g organ
